16 compounds from patent US20250163104A1, “MACROCYCLIC IMMUNOMODULATORS” (priority 2021, published 2025) can be followed below.

pIC50: −log10 of the molar value. Where a SMILES comes first, the peptide text is derived from it. Bridges are numbered along the chain shown (N, C = ends). [ ]: non-standard residue; d: D form. Bip = N[C@@H](Cc1ccc(-c2ccccc2)cc1)C(=O)O; Cit = NC(=O)NCCC[C@H](N)C(=O)O; Orn = NCCC[C@H](N)C(=O)O; Dab = NCC[C@H](N)C(=O)O

The target of this experiment is T1, human PD-1 / PD-L1-Ig binding on Jurkat cell line over-expressing human PD-1 (Jurkat-PD-1) (Homo sapiens, UniProt Q15116).
T1 construct: expressed in transfected cells; host or cells: Jurkat
T1 sequence (Q15116 25-288): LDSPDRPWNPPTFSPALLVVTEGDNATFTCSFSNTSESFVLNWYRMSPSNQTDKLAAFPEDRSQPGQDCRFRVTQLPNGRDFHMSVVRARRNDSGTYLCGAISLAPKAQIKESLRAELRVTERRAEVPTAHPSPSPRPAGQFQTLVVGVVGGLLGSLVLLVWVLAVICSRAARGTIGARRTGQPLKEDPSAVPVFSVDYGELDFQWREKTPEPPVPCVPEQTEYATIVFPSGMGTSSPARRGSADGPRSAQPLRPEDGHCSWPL
The experiment is described as follows: Jurkat-PD-1 Cell Binding High-Content Screening Assay (CBA). It is filed as cell-based. The following applies: Jurkat-PD-1 cells, PE-labeled PD-L1-Ig 20 nM final; read-out: Jurkat HPD1_PDL1 IC50. In outline:
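Cell-bound PE-labeled PD-L1-Ig (20 nM final, 1 h) measured by high-content imaging after fixation and Hoechst 33342 counterstain. Compound was applied first for 2 h at 37° C. to Jurkat cells over-expressing human PD-1 in DMEM with 10% FCS.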
Consider `CC(C)C[C@@H]1NC(=O)[C@H](CCN)NC(=O)[C@@H](CC(C)C)NC(=O)[C@H](CCCN)NC(=O)[C@H](CCCNC(N)=O)NC(=O)[C@H](Cc2ccc(-c3ccccc3)cc2)NC(=O)[C@H](C(C)C)NC(=O)[C@H](Cc2c[nH]c3ccccc23)NC(=O)[C@H](CC(=O)O)NC(=O)[C@H](Cc2ccc(O)cc2)NC(=O)[C@H](CC(N)=O)NC(=O)CSC[C@@H](C(=O)N[C@@H](C)C(N)=O)NC(=O)[C@H](CO)NC(=O)[C@H](C(C)C)NC1=O` [Compound 1109] ({CH2CO}-NYDWV[Bip][Cit][Orn][dL][Dab]LVSCA-NH2; thioether N-14), for which the pIC50 was 7.44.
To `CC(C)C[C@@H]1NC(=O)[C@H](CCN)NC(=O)[C@@H](CC(C)C)NC(=O)[C@H](CCCCN)NC(=O)[C@H](CCCNC(N)=O)NC(=O)[C@H](Cc2ccc(-c3ccccc3)cc2)NC(=O)[C@H](C(C)C)NC(=O)[C@H](Cc2c[nH]c3ccccc23)NC(=O)[C@H](CC(=O)O)NC(=O)[C@H](Cc2ccc(O)cc2)NC(=O)[C@H](CC(N)=O)NC(=O)CSC[C@@H](C(=O)N[C@@H](C)C(N)=O)NC(=O)[C@H](CO)NC(=O)[C@H](C(C)C)NC1=O` [Compound 1110] ({CH2CO}-NYDWV[Bip][Cit]K[dL][Dab]LVSCA-NH2; thioether N-14) belongs 7.45.
Regarding `CC(C)C[C@@H]1NC(=O)[C@H](CCN)NC(=O)[C@@H](CC(C)C)NC(=O)[C@H](CCN)NC(=O)[C@H](CCCNC(N)=O)NC(=O)[C@H](Cc2ccc(-c3ccccc3)cc2)NC(=O)[C@H](C(C)C)NC(=O)[C@H](Cc2c[nH]c3ccccc23)NC(=O)[C@H](CC(=O)O)NC(=O)[C@H](Cc2ccc(O)cc2)NC(=O)[C@H](CC(N)=O)NC(=O)CSC[C@@H](C(=O)N[C@@H](C)C(N)=O)NC(=O)[C@H](CO)NC(=O)[C@H](C(C)C)NC1=O` [Compound 1111] ({CH2CO}-NYDWV[Bip][Cit][Dab][dL][Dab]LVSCA-NH2; thioether N-14), the negative-log IC50 (pIC50) was 7.42.
The value for `CC(C)C[C@@H]1NC(=O)[C@H](CCN)NC(=O)[C@@H](CC(C)C)NC(=O)[C@H](CCCN)NC(=O)[C@H](CCCNC(N)=O)NC(=O)[C@H](Cc2ccc(-c3ccccc3)cc2)NC(=O)[C@H](C(C)C)NC(=O)[C@H](Cc2c[nH]c3ccccc23)NC(=O)[C@H](CC(=O)O)NC(=O)[C@H](Cc2ccc(O)cc2)NC(=O)[C@H](CC(N)=O)NC(=O)CSC[C@@H](C(=O)NCC(N)=O)NC(=O)[C@H](CO)NC(=O)[C@H](C(C)C)NC1=O` [Compound 1112] ({CH2CO}-NYDWV[Bip][Cit][Orn][dL][Dab]LVSCG-NH2; thioether N-14) was 7.77.
For `CC(C)C[C@@H]1NC(=O)[C@H](CCN)NC(=O)[C@@H](CC(C)C)NC(=O)[C@H](CCCCN)NC(=O)[C@H](CCCNC(N)=O)NC(=O)[C@H](Cc2ccc(-c3ccccc3)cc2)NC(=O)[C@H](C(C)C)NC(=O)[C@H](Cc2c[nH]c3ccccc23)NC(=O)[C@H](CC(=O)O)NC(=O)[C@H](Cc2ccc(O)cc2)NC(=O)[C@H](CC(N)=O)NC(=O)CSC[C@@H](C(=O)NCC(N)=O)NC(=O)[C@H](CO)NC(=O)[C@H](C(C)C)NC1=O` [Compound 1113] ({CH2CO}-NYDWV[Bip][Cit]K[dL][Dab]LVSCG-NH2; thioether N-14), the pIC50 was 7.81.
For the compound `CC(C)C[C@@H]1NC(=O)[C@H](CCN)NC(=O)[C@@H](CC(C)C)NC(=O)[C@H](CCN)NC(=O)[C@H](CCCNC(N)=O)NC(=O)[C@H](Cc2ccc(-c3ccccc3)cc2)NC(=O)[C@H](C(C)C)NC(=O)[C@H](Cc2c[nH]c3ccccc23)NC(=O)[C@H](CC(=O)O)NC(=O)[C@H](Cc2ccc(O)cc2)NC(=O)[C@H](CC(N)=O)NC(=O)CSC[C@@H](C(=O)NCC(N)=O)NC(=O)[C@H](CO)NC(=O)[C@H](C(C)C)NC1=O` [Compound 1114] ({CH2CO}-NYDWV[Bip][Cit][Dab][dL][Dab]LVSCG-NH2; thioether N-14), the pIC50 is 7.50.
Regarding `CC(C)C[C@@H]1NC(=O)[C@H](CCN)NC(=O)[C@@H](CC(C)C)NC(=O)[C@H](CCCN)NC(=O)[C@H](CCCNC(N)=O)NC(=O)[C@H](Cc2ccc(-c3ccccc3)cc2)NC(=O)[C@H](C(C)C)NC(=O)[C@H](Cc2c[nH]c3ccccc23)NC(=O)[C@H](CC(=O)O)NC(=O)[C@H](Cc2ccc(O)cc2)NC(=O)[C@H](CC(N)=O)NC(=O)CSC[C@@H](C(=O)NCC(N)=O)NC(=O)[C@H]([C@@H](C)O)NC(=O)[C@H](C(C)C)NC1=O` [Compound 1115] ({CH2CO}-NYDWV[Bip][Cit][Orn][dL][Dab]LVTCG-NH2; thioether N-14), the pIC50 was 7.10.
To `CC(C)C[C@@H]1NC(=O)[C@H](CCN)NC(=O)[C@@H](CC(C)C)NC(=O)[C@H](CCCCN)NC(=O)[C@H](CCCNC(N)=O)NC(=O)[C@H](Cc2ccc(-c3ccccc3)cc2)NC(=O)[C@H](C(C)C)NC(=O)[C@H](Cc2c[nH]c3ccccc23)NC(=O)[C@H](CC(=O)O)NC(=O)[C@H](Cc2ccc(O)cc2)NC(=O)[C@H](CC(N)=O)NC(=O)CSC[C@@H](C(=O)NCC(N)=O)NC(=O)[C@H]([C@@H](C)O)NC(=O)[C@H](C(C)C)NC1=O` [Compound 1116] ({CH2CO}-NYDWV[Bip][Cit]K[dL][Dab]LVTCG-NH2; thioether N-14) belongs 7.41; to `CC(C)C[C@@H]1NC(=O)[C@H](CCN)NC(=O)[C@@H](CC(C)C)NC(=O)[C@H](CCN)NC(=O)[C@H](CCCNC(N)=O)NC(=O)[C@H](Cc2ccc(-c3ccccc3)cc2)NC(=O)[C@H](C(C)C)NC(=O)[C@H](Cc2c[nH]c3ccccc23)NC(=O)[C@H](CC(=O)O)NC(=O)[C@H](Cc2ccc(O)cc2)NC(=O)[C@H](CC(N)=O)NC(=O)CSC[C@@H](C(=O)NCC(N)=O)NC(=O)[C@H]([C@@H](C)O)NC(=O)[C@H](C(C)C)NC1=O` [Compound 1117] ({CH2CO}-NYDWV[Bip][Cit][Dab][dL][Dab]LVTCG-NH2; thioether N-14), 7.41.
For the compound `CC[C@H](C)[C@@H]1NC(=O)[C@H](Cc2ccc(-c3ccccc3)cc2)NC(=O)[C@H](C(C)C)NC(=O)[C@H](Cc2c[nH]c3ccccc23)NC(=O)[C@H](CC(=O)O)NC(=O)[C@H](Cc2ccc(O)cc2)NC(=O)[C@H](CC(N)=O)NC(=O)CSC[C@@H](C(=O)N[C@@H](C)C(N)=O)NC(=O)[C@H](CO)NC(=O)[C@H](C(C)C)NC(=O)[C@H](CC(C)C)NC(=O)[C@H](CCN)NC(=O)[C@@H](CC(C)C)NC(=O)[C@H](CCCN)NC1=O` [Compound 1118] ({CH2CO}-NYDWV[Bip]I[Orn][dL][Dab]LVSCA-NH2; thioether N-14), the pIC50 is 7.64.
To `CC[C@H](C)[C@@H]1NC(=O)[C@H](Cc2ccc(-c3ccccc3)cc2)NC(=O)[C@H](C(C)C)NC(=O)[C@H](Cc2c[nH]c3ccccc23)NC(=O)[C@H](CC(=O)O)NC(=O)[C@H](Cc2ccc(O)cc2)NC(=O)[C@H](CC(N)=O)NC(=O)CSC[C@@H](C(=O)N[C@@H](C)C(N)=O)NC(=O)[C@H](CO)NC(=O)[C@H](C(C)C)NC(=O)[C@H](CC(C)C)NC(=O)[C@H](CCN)NC(=O)[C@@H](CC(C)C)NC(=O)[C@H](CCCCN)NC1=O` [Compound 1119] ({CH2CO}-NYDWV[Bip]IK[dL][Dab]LVSCA-NH2; thioether N-14) belongs 7.88.
To `CC[C@H](C)[C@@H]1NC(=O)[C@H](Cc2ccc(-c3ccccc3)cc2)NC(=O)[C@H](C(C)C)NC(=O)[C@H](Cc2c[nH]c3ccccc23)NC(=O)[C@H](CC(=O)O)NC(=O)[C@H](Cc2ccc(O)cc2)NC(=O)[C@H](CC(N)=O)NC(=O)CSC[C@@H](C(=O)N[C@@H](C)C(N)=O)NC(=O)[C@H](CO)NC(=O)[C@H](C(C)C)NC(=O)[C@H](CC(C)C)NC(=O)[C@H](CCN)NC(=O)[C@@H](CC(C)C)NC(=O)[C@H](CCN)NC1=O` [Compound 1120] ({CH2CO}-NYDWV[Bip]I[Dab][dL][Dab]LVSCA-NH2; thioether N-14) belongs 7.94; to `CC[C@H](C)[C@@H]1NC(=O)[C@H](Cc2ccc(-c3ccccc3)cc2)NC(=O)[C@H](C(C)C)NC(=O)[C@H](Cc2c[nH]c3ccccc23)NC(=O)[C@H](CC(=O)O)NC(=O)[C@H](Cc2ccc(O)cc2)NC(=O)[C@H](CC(N)=O)NC(=O)CSC[C@@H](C(=O)NCC(N)=O)NC(=O)[C@H](CO)NC(=O)[C@H](C(C)C)NC(=O)[C@H](CC(C)C)NC(=O)[C@H](CCN)NC(=O)[C@@H](CC(C)C)NC(=O)[C@H](CCCN)NC1=O` [Compound 1121] ({CH2CO}-NYDWV[Bip]I[Orn][dL][Dab]LVSCG-NH2; thioether N-14), 7.68.
For the compound `CC[C@H](C)[C@@H]1NC(=O)[C@H](Cc2ccc(-c3ccccc3)cc2)NC(=O)[C@H](C(C)C)NC(=O)[C@H](Cc2c[nH]c3ccccc23)NC(=O)[C@H](CC(=O)O)NC(=O)[C@H](Cc2ccc(O)cc2)NC(=O)[C@H](CC(N)=O)NC(=O)CSC[C@@H](C(=O)NCC(N)=O)NC(=O)[C@H](CO)NC(=O)[C@H](C(C)C)NC(=O)[C@H](CC(C)C)NC(=O)[C@H](CCN)NC(=O)[C@@H](CC(C)C)NC(=O)[C@H](CCCCN)NC1=O` [Compound 1122] ({CH2CO}-NYDWV[Bip]IK[dL][Dab]LVSCG-NH2; thioether N-14), the negative logarithm of the IC50 (pIC50) was 7.79.
To `CC[C@H](C)[C@@H]1NC(=O)[C@H](Cc2ccc(-c3ccccc3)cc2)NC(=O)[C@H](C(C)C)NC(=O)[C@H](Cc2c[nH]c3ccccc23)NC(=O)[C@H](CC(=O)O)NC(=O)[C@H](Cc2ccc(O)cc2)NC(=O)[C@H](CC(N)=O)NC(=O)CSC[C@@H](C(=O)NCC(N)=O)NC(=O)[C@H](CO)NC(=O)[C@H](C(C)C)NC(=O)[C@H](CC(C)C)NC(=O)[C@H](CCN)NC(=O)[C@@H](CC(C)C)NC(=O)[C@H](CCN)NC1=O` [Compound 1123] ({CH2CO}-NYDWV[Bip]I[Dab][dL][Dab]LVSCG-NH2; thioether N-14) belongs 7.83.
To `CC[C@H](C)[C@@H]1NC(=O)[C@H](Cc2ccc(-c3ccccc3)cc2)NC(=O)[C@H](C(C)C)NC(=O)[C@H](Cc2c[nH]c3ccccc23)NC(=O)[C@H](CC(=O)O)NC(=O)[C@H](Cc2ccc(O)cc2)NC(=O)[C@H](CC(N)=O)NC(=O)CSC[C@@H](C(=O)NCC(N)=O)NC(=O)[C@H]([C@@H](C)O)NC(=O)[C@H](C(C)C)NC(=O)[C@H](CC(C)C)NC(=O)[C@H](CCN)NC(=O)[C@@H](CC(C)C)NC(=O)[C@H](CCCN)NC1=O` [Compound 1124] ({CH2CO}-NYDWV[Bip]I[Orn][dL][Dab]LVTCG-NH2; thioether N-14) belongs 7.61.

By pIC50 is commonly meant −log10 of the IC50, conventionally taken in molar units.
